# Columns and labels:
# Assay in all cases: In vitro MIC, 2010 surveillance isolates
# [1] = tested on: E. faecalis VS; assay type: cell-based
# [2] = tested on: E. faecalis VNS; assay type: cell-based
# [3] = tested on: K. pneumoniae ESBL+; assay type: cell-based, Klebsiella pneumoniae; conditions: for % R (resistance): Eucast breakpoints
# [4] = tested on: E. faecium VS; assay type: cell-based; conditions: for % R (resistance): Eucast breakpoints
# [5] = tested on: E. cloacae CeftazR; assay type: cell-based; conditions: for % R (resistance): Eucast breakpoints
# [6] = tested on: K. pneumoniae ESBL−; assay type: cell-based, Klebsiella pneumoniae
# [7] = tested on: E. coli ESBL+; assay type: cell-based, Escherichia coli; conditions: for % R (resistance): Eucast breakpoints
# [8] = tested on: MR CoNS; assay type: cell-based, Coagulase-Negative Staphylococcus
# [9] = tested on: Enterobacter spp; assay type: cell-based; conditions: for % R (resistance): Eucast breakpoints
# [10] = tested on: MSSA; assay type: cell-based
# [11] = tested on: MS CoNS; assay type: cell-based, Coagulase-Negative Staphylococcus
# [12] = tested on: E. faecium VNS; assay type: cell-based; conditions: for % R (resistance): Eucast breakpoints
# [13] = tested on: E. cloacae CeftazS; assay type: cell-based; conditions: for % R (resistance): Eucast breakpoints
# [14] = tested on: E. coli ESBL−; assay type: cell-based, Escherichia coli; conditions: for % R (resistance): Eucast breakpoints
# [15] = tested on: Acinetobacter spp; assay type: cell-based
# [16] = tested on: MRSA; assay type: cell-based
# [17] = tested on: K. oxytoca; assay type: cell-based; conditions: for % R (resistance): Eucast breakpoints
# [18] = tested on: A. baumanii; assay type: cell-based
substance,measurement,setting,value
amoxicillin-clavulanic acid [Amox/clav],% R (resistance),"[1]; Asia/Pac, Eucast breakpoints",0%
same,MIC90,"[1]; Asia/Pac, N=214",≤ 1 µg/mL
same,% R (resistance),"[1]; Europe, Eucast breakpoints",0%
same,MIC90,"[1]; Europe, N=669",≤ 1 µg/mL
same,% R (resistance),"[1]; L. Amer, CLSI breakpoints",0%
same,MIC90,"[1]; L. Amer, N=290",≤ 1 µg/mL
same,% R (resistance),"[1]; N America, CLSI breakpoints",0%
same,MIC90,"[1]; N America, N=863",≤ 1 µg/mL
same,"range of MICs (N <10, shown instead of MIC90)","[2]; Asia/Pac, N=1",≤1
same,% R (resistance),"[2]; Europe, Eucast breakpoints",0%
same,"range of MICs (N <10, shown instead of MIC90)","[2]; Europe, N=8",≤1-2
same,% R (resistance),"[2]; L. Amer, CLSI breakpoints",0%
same,"range of MICs (N <10, shown instead of MIC90)","[2]; L. Amer, N=7",≤1-2
same,% R (resistance),"[2]; N America, CLSI breakpoints",0%
same,MIC90,"[2]; N America, N=38",≤ 1 µg/mL
same,% R (resistance),[3]; Asia/Pac,72.6%
same,MIC90,"[3]; Asia/Pac, N=124",> 8 µg/mL
same,% R (resistance),[3]; Europe,84.1%
same,MIC90,"[3]; Europe, N=151",> 8 µg/mL
same,MIC90,"[3]; L. Amer, N=209",> 8 µg/mL
same,MIC90,"[3]; N America, N=108",> 8 µg/mL
same,% R (resistance),[4]; Asia/Pac,91.5%
same,MIC90,"[4]; Asia/Pac, N=106",> 8 µg/mL
same,% R (resistance),[4]; Europe,93.4%
same,MIC90,"[4]; Europe, N=303",> 8 µg/mL
same,MIC90,"[4]; L. Amer, N=51",> 8 µg/mL
same,MIC90,"[4]; N America, N=115",> 8 µg/mL
same,% R (resistance),[5]; Asia/Pac,100%
same,MIC90,"[5]; Asia/Pac, N=63",> 8 µg/mL
same,% R (resistance),[5]; Europe,100%
same,MIC90,"[5]; Europe, N=72",> 8 µg/mL
same,MIC90,"[5]; L. Amer, N=42",> 8 µg/mL
same,MIC90,"[5]; N America, N=77",> 8 µg/mL
same,% R (resistance),"[6]; Asia/Pac, Eucast breakpoints",3.7%
same,MIC90,"[6]; Asia/Pac, N=189",8 µg/mL
same,% R (resistance),"[6]; Europe, Eucast breakpoints",7.2%
same,MIC90,"[6]; Europe, N=361",8 µg/mL
same,MIC90,"[6]; L. Amer, N=160",8 µg/mL
same,% R (resistance),"[6]; N America, CLSI breakpoints",0%
same,MIC90,"[6]; N America, N=671",4 µg/mL
same,% R (resistance),[7]; Asia/Pac,39.3%
same,MIC90,"[7]; Asia/Pac, N=219",> 8 µg/mL
same,% R (resistance),[7]; Europe,70.1%
same,MIC90,"[7]; Europe, N=274",> 8 µg/mL
same,MIC90,"[7]; L. Amer, N=168",> 8 µg/mL
same,MIC90,"[7]; N America, N=134",> 8 µg/mL
same,% R (resistance),"[8]; Asia/Pac, Eucast breakpoints",100%
same,MIC90,"[8]; Asia/Pac, N=77",> 8 µg/mL
same,% R (resistance),"[8]; Europe, Eucast breakpoints",100%
same,MIC90,"[8]; Europe, N=510",> 8 µg/mL
same,% R (resistance),"[8]; L. Amer, CLSI breakpoints",100%
same,MIC90,"[8]; L. Amer, N=301",> 8 µg/mL
same,% R (resistance),"[8]; N America, CLSI breakpoints",100%
same,MIC90,"[8]; N America, N=461",8 µg/mL
same,% R (resistance),[9]; Asia/Pac,96.2%
same,MIC90,"[9]; Asia/Pac, N=52",> 8 µg/mL
same,% R (resistance),[9]; Europe,91.5%
same,MIC90,"[9]; Europe, N=82",> 8 µg/mL
same,MIC90,"[9]; L. Amer, N=42",> 8 µg/mL
same,MIC90,"[9]; N America, N=101",> 8 µg/mL
same,% R (resistance),"[10]; Asia/Pac, Eucast breakpoints",0%
same,MIC90,"[10]; Asia/Pac, N=641",≤ 1 µg/mL
same,% R (resistance),"[10]; Europe, Eucast breakpoints",0%
same,MIC90,"[10]; Europe, N=2109",≤ 1 µg/mL
same,% R (resistance),"[10]; L. Amer, CLSI breakpoints",0%
same,MIC90,"[10]; L. Amer, N=590",≤
same,% R (resistance),"[10]; N America, CLSI breakpoints",0.1%
same,MIC90,"[10]; N America, N=2373",≤ 1 µg/mL
same,% R (resistance),"[11]; Asia/Pac, Eucast breakpoints",0%
same,MIC90,"[11]; Asia/Pac, N=18",≤ 1 µg/mL
same,% R (resistance),"[11]; Europe, Eucast breakpoints",0%
same,MIC90,"[11]; Europe, N=185",≤ 1 µg/mL
same,% R (resistance),"[11]; L. Amer, CLSI breakpoints",0%
same,MIC90,"[11]; L. Amer, N=67",≤ 1 µg/mL
same,% R (resistance),"[11]; N America, CLSI breakpoints",0%
same,MIC90,"[11]; N America, N=191",≤ 1 µg/mL
same,% R (resistance),[12]; Asia/Pac,100%
same,MIC90,"[12]; Asia/Pac, N=24",> 8 µg/mL
same,% R (resistance),[12]; Europe,100%
same,MIC90,"[12]; Europe, N=71",> 8 µg/mL
same,MIC90,"[12]; L. Amer, N=41",> 8 µg/mL
same,MIC90,"[12]; N America, N=478",> 8 µg/mL
same,% R (resistance),[13]; Asia/Pac,94%
same,MIC90,"[13]; Asia/Pac, N=100",> 8 µg/mL
same,% R (resistance),[13]; Europe,92.3%
same,MIC90,"[13]; Europe, N=183",> 8 µg/mL
same,MIC90,"[13]; L. Amer, N=57",> 8 µg/mL
same,MIC90,"[13]; N America, N=210",> 8 µg/mL
same,% R (resistance),[14]; Asia/Pac,14.2%
same,MIC90,"[14]; Asia/Pac, N=282",> 8 µg/mL
same,% R (resistance),[14]; Europe,17.7%
same,MIC90,"[14]; Europe, N=1533",> 8 µg/mL
same,MIC90,"[14]; L. Amer, N=389",> 8 µg/mL
same,MIC90,"[14]; N America, N=1172",> 8 µg/mL
same,MIC90,"[15]; Europe, N=43",> 8 µg/mL
same,MIC90,"[15]; N America, N=42",> 8 µg/mL
same,% R (resistance),"[16]; Asia/Pac, Eucast breakpoints",100%
same,MIC90,"[16]; Asia/Pac, N=428",> 8 µg/mL
same,% R (resistance),"[16]; Europe, Eucast breakpoints",100%
same,MIC90,"[16]; Europe, N=750",> 8 µg/mL
same,% R (resistance),"[16]; L. Amer, CLSI breakpoints",100%
same,MIC90,"[16]; L. Amer, N=506",> 8 µg/mL
same,% R (resistance),"[16]; N America, CLSI breakpoints",100%
same,MIC90,"[16]; N America, N=2508",> 8 µg/mL
same,% R (resistance),[17]; Asia/Pac,23.5%
same,MIC90,"[17]; Asia/Pac, N=17",> 8 µg/mL
same,% R (resistance),[17]; Europe,14.6%
same,MIC90,"[17]; Europe, N=158",> 8 µg/mL
same,MIC90,"[17]; L. Amer, N=25",> 8 µg/mL
same,MIC90,"[17]; N America, N=177",> 8 µg/mL
same,MIC90,"[18]; Asia/Pac, N=275",> 8 µg/mL
same,MIC90,"[18]; Europe, N=145",> 8 µg/mL
same,MIC90,"[18]; L. Amer, N=275",> 8 µg/mL
same,MIC90,"[18]; N America, N=154",> 8 µg/mL

# Source: patent publication US10238670B2, “9-aminomethyl minocycline compounds and methods of use thereof in urinary tract infection (UTI) treatment” (Paratek Pharmaceuticals, Inc., priority 2016, dated 2019)
